Target: T1, Human galectin-3 (Gal-3) (Homo sapiens, UniProt P17931)
T1 construct: gene LGALS3; mainly monomeric in solution
Assay: isothermal titration calorimetry
Format: binding
Settings: 20 mM phosphate pH 7.2, 150 mM NaCl, 25 °C; equal and independent sites model, n = 1.00 buffer and model; tetravalent ligand, n = 0.19 ± 0.05, cross-linking; read-out: K.10^-4 (M^-1)
From the text: isothermal titration calorimetry on Human galectin-3 (Gal-3)

T1 sequence (P17931 2-250): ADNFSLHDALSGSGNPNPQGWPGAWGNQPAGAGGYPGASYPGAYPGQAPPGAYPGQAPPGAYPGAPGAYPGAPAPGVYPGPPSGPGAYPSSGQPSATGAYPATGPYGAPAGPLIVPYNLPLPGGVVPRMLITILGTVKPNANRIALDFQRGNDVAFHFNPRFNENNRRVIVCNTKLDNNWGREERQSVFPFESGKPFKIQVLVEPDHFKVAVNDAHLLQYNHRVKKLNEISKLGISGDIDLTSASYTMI

Kd: 3.14 µM
Substance: G0-PAMAM-(COCH2CH2TACH2FcCH2TACH2Lac)4 [compound 12]

— article PMC7074905, “Multivalent Lactose–Ferrocene Conjugates Based on Poly (Amido Amine) Dendrimers and Gold Nanoparticles as Electrochemical Probes for Sensing Galectin-3” (Nanomaterials, 2020)
